Source: patent US7153494B2, “Dibenzoylmethane sunscreen compositions photostabilized with amphiphilic block copolymers” (L'Oreal, priority 2002, dated 2006)

Test: Photostability of oily Parsol 1789/block copolymer mixture as a thin coat on a glass plate, xenon lamp irradiation, absorption spectrophotometry
Assay type: physicochemical
Conditions: mixture with Tegomer SE-1010; thin coat about 10 microns on glass plate, in presence of oxygen; UV-A 22 J/cm^2, 20 minutes
Method: The Parsol® 1789 was dispersed in the Tegomer SE-1010 with heating at 40° C. for 60 minutes. The mixture was allowed to cool to room temperature. The oily mixture was ready for use.
The oily mixture was evaluated in the form of a thin coat of about 10 microns deposited on a glass plate (microscope slide), in the presence of oxygen.
An irradiation was then performed, using an Ostram-Centra Uvimeter equipped with a xenon lamp, under the following conditions: • Energy of the UV-A lamp: 22 J/cm^2 • Irradiation time of the simulator=20 minutes
These conditions correspond to about one hour of solar UV-A sunshine.
The photodegradation was monitored by absorption spectrophotometry. The following results were obtained: • 1) The mixture was able to form a film and the quality of the film was not impaired by the irradiation. • 2) 100% of the Parsol® 1789 was recovered after this exposure.

COc1ccc(C(=O)CC(=O)c2ccc(C(C)(C)C)cc2)cc1 [Parsol® 1789, 4-(tert-butyl)-4′-methoxydibenzoylmethane]
Parsol 1789 recovered after exposure: 100%
